The values that follow come from a melting point compilation (Tetko et al.).

Molecules are shown by their SMILES.

`O=C(O)c1ccnc(C2CCCC2)n1` returned a melting point of 129 to 131 °C.
The result for `Nc1ccc(OCc2cccc(F)c2)c(Cl)c1` reads 79 to 81 °C; that for `Cc1cc(F)ccc1N1CCCC(Br)C1=O` (stereo not drawn), 94 to 96 °C.
`CC(=O)NCCCc1ccc(C(=O)CCl)cc1` yielded a melting point of 96 to 98 °C.
The result for `NC(=O)N1CCc2cc(S(=O)(=O)F)ccc21` reads 218 to 220 °C; that for `Cc1nnc(S)o1`, 239 to 241 °C; that for `Cn1ccnc(N)c1=O`, 162 to 164 °C.
In the case of `O=C(O)c1ccc(COc2ccccc2)o1` it was 169 to 171 °C.
In the case of `Nc1ccc(C(=O)NCC(F)(F)F)cc1` it was 157 to 159 °C; in that of `Nc1cccc(NC(=O)C2CC2)c1`, 133 to 135 °C; in that of `O=C(O)C(Cc1ccccc1)N1CCCOC1=O` (stereo not drawn), 163 to 165 °C.
Molecule `COc1cc(C(C)=O)ccc1SC` gave a melting point of 92 to 94 °C.
Turning to `NS(=O)(=O)Cc1cccnc1`, the melting point lay in the range of 154 to 156 °C.
The result for `COc1ccc(C=NO)cc1` reads 64 to 66 °C; that for `Cc1[nH]c(=O)c(C(=O)O)cc1-c1ccc(O)cc1`, 296 to 298 °C; that for `O=C(O)COc1cccc2cccnc12`, 125 to 127 °C.
In the case of `CC(Cl)c1nnc(-c2ccccc2)o1` (stereo not drawn) it was below 17 °C; in that of `COc1cc(C#N)ccc1CBr`, 89 to 91 °C; in that of `CN(CCCNC(=O)CCl)S(C)(=O)=O`, 79 to 81 °C.
In the case of `NC(=O)c1ccc(S(N)(=O)=O)cc1` it was 243 to 245 °C; in that of `CNC(CCO)c1ccccc1` (stereo not drawn), 56 to 58 °C.
Take `CC(=O)N(CCC(N)=S)C(C)C`: the melting point lay in the range of 104 to 106 °C.
The result for `Cc1ccc(S(=O)(=O)N2CC(Cc3cccc(F)c3)C2)cc1` reads 57 to 59 °C; that for `COc1cc(C=O)ccc1OCc1ccc(Br)cc1`, 74 to 76 °C; that for `Cc1cc2nnc(S)n2c(C)n1`, 250 to 252 °C.
In the case of `Cc1nc(-c2ccccc2)ccc1C(=O)O` it was 190 to 192 °C.
In the case of `O=C(O)CCn1cnc2sc3c(c2c1=O)CCCC3` it was 193 to 195 °C.
In turn, `NC(=O)c1cnc(N)c(Cl)c1` gave a melting point of 217 to 219 °C.
Turning to `CCOC(=O)c1cc(-c2ccccc2)ccc1N`, the melting point lay within 59 to 61 °C.
For `COC(=O)c1cccc(OCc2ncon2)c1`, the melting point was 102 to 104 °C.
In the case of `COCCNc1nnnn1C` it was 59 to 61 °C; in that of `CSc1ccc(C(=O)O)cn1`, 182 to 184 °C; in that of `COC(=O)c1sc(N)nc1C1CC1`, 184 to 186 °C.
In the case of `CC(C)(C)C(=O)N1CCC(C(=O)O)CC1` it was 115 to 127 °C.
The molecule `Nc1cc(-c2ccsc2)no1` registered a melting point of 89 to 91 °C.
The result for `Cc1cc(N2CCCS2(=O)=O)ccc1C(=O)O` reads 249 to 251 °C.
The result for `O=[N+]([O-])c1cccc(-c2nn[nH]n2)c1` reads 154 to 156 °C; that for `NC(=O)C1CCC(C(=O)O)CC1` (stereo not drawn), 205 to 207 °C.
Molecule `CCOC(=O)c1ccc(C=O)o1` yielded a melting point of 35 to 37 °C.
In the case of `NC(=NO)c1ccc(-c2ccccc2)cc1` it was 182 to 184 °C; in that of `O=C(Nc1ccsc1C(=O)O)c1ccncc1`, 230 to 232 °C; in that of `Cc1ccc(C)c(Sc2ncccc2C(=O)O)c1`, 188 to 190 °C.
As to `CCCc1nonc1N`, the melting point fell in the range of 29 to 31 °C.
The result for `Cc1ccsc1C(=O)Nc1ccc(O)cc1` reads 127 to 129 °C; that for `COc1ccc(C(=O)c2ccc(F)cc2)cc1`, 90 to 92 °C; that for `COc1ccc(C(C)(C)C(=O)O)cc1OC`, 84 to 86 °C.
With `Nc1ccc(Cl)c(CN2CCCCC2)c1`, the melting point was in the range of 125 to 127 °C.
Molecule `COC(=O)c1cc(C(=O)OC)cc(-n2c(C)cc(C(=O)CCl)c2C)c1` returned a melting point of 153 to 155 °C.
In the case of `O=C(O)C1CCCN1S(=O)(=O)c1ccc(Cl)s1` (stereo not drawn) it was 44 to 46 °C; in that of `NC(=O)c1csc(C=O)c1`, 155 to 157 °C.
In the case of `CCOC(=O)c1cn2c(n1)NCCC2` it was 171 to 173 °C; in that of `CC(=O)Nc1cccc(N2C(=O)C=CC2=O)c1`, 185 to 187 °C.
In the case of `NCCc1nc2ccccc2s1`, the melting point lay within 47 to 49 °C.
The result for `Cc1nn2c(=O)cc(CCl)nc2s1` reads 210 to 212 °C.
In the case of `O=Cc1c(O)cccc1Cl`, the melting point was in the range of 52 to 54 °C.
`NC(Cn1cccn1)=NO` displayed a melting point of 80 to 82 °C.
`OC1CCCOc2cc(Br)ccc21` (stereo not drawn) had a melting point of 73 to 75 °C.
The result for `Cc1cc(C)nc(-n2nc(C)c(CC(=O)O)c2C)n1` reads 249 to 251 °C; that for `O=Cc1ccc(Oc2cccc([N+](=O)[O-])c2)cc1`, 59 to 61 °C.
The result for `COc1ccc(-c2cc(N)on2)c(OC)c1OC` reads 161 to 163 °C; that for `O=C(O)c1n[nH]c2ccc(I)cc12`, 285 to 287 °C; that for `CN(C)C(=O)c1cnc(Cl)c(Cl)c1`, 89 to 91 °C.
Take `O=C(O)c1cccc2c1C(=O)c1ccccc1C2=O`: the melting point lay within 293 to 295 °C.
In the case of `O=C(O)c1ccc(Oc2cccc(Cl)c2)cc1` it was 132 to 134 °C.
`Nc1nc(-c2cccc(C(F)(F)F)c2)cs1` had a melting point of 85 to 87 °C.
In the case of `CC(C)n1ncc2cc(C=O)c(Cl)nc21`, the melting point fell in the range of 78 to 80 °C.
Take `O=C1OCCc2cnc3ncnn3c21`: the melting point lay in the range of 271 to 273 °C.
In the case of `CC(=O)c1cccc(OCC(=O)N(C)C)c1` it was 93 to 95 °C.
Turning to `Cc1nnc(N2CCCC2)c(C#N)c1C`, the melting point is 146 to 148 °C.
As for `NC(=O)COc1cccnc1`, the melting point is 93 to 95 °C.
The molecule `CC(C)(C)c1nonc1N` displayed a melting point of 90 to 92 °C.
As to `Nc1cc(Cl)c(NC(=O)c2ccsc2)c(Cl)c1`, the melting point lay within 206 to 208 °C.
`CC(=O)Nc1cc(S(=O)(=O)Cl)ccc1C`: the melting point is 145 to 147 °C.
In the case of `CC(=O)c1ccc(-c2ccccc2Cl)s1` it was 54 to 56 °C; in that of `CC(C)c1nnc(S)[nH]1`, 156 to 158 °C.
The result for `CN(C)c1ccc(-c2nc3ccccc3s2)cc1` reads 171 to 173 °C; that for `O=C(CCl)NCC(c1ccc(Cl)cc1Cl)c1c[nH]c2ccccc12` (stereo not drawn), 73 to 75 °C.
The result for `O=C(O)c1cc2ccccc2c(Nc2ccccc2F)n1` reads 224 to 226 °C; that for `COc1ccc(C(C)=O)cc1NC(C)=O`, 120 to 122 °C.
With `O=C1C=CC(=O)N1c1cccc(Cl)c1`, the melting point is 86 to 88 °C.
On to `O=c1[nH]cnc2ccsc12`, for which the melting point is 219 to 221 °C.
On to `O=C(O)c1ccc(CSc2ccccc2)cc1`, for which the melting point is 179 to 181 °C.
`COc1ccc(/C=C/C(=O)O)cc1S(N)(=O)=O` yielded a melting point of 257 to 259 °C.
`O=C(CCl)c1ccc(N2CCCC2=O)cc1` came in with a melting point of 127 to 129 °C.
Molecule `COc1ccccc1C(C)N(C)C(=O)CCl` (stereo not drawn) came in with a melting point of 66 to 68 °C.
The result for `Cc1cc(S(N)(=O)=O)c(C)s1` reads 139 to 141 °C; that for `CC(=O)NC12CC3CC(C1)CC(C(=O)O)(C3)C2`, 258 to 260 °C.
As for `Cc1ncsc1-c1nc(CN)no1`, the melting point was in the range of 159 to 161 °C.

One may read the melting point as the temperature of the solid-liquid transition.
